From BindingDB's records for doi:10.1016/j.ejmech.2021.113242 (South China Agricultural University, 2021)

Assay: Inhibition of spike glycoprotein S in SARS-CoV-2 pseudovirus infected human 293T/ACE2 cells assessed as inhibition of viral infection measured after 48 hrs by luciferase reporter gene assay

SMILES	IC50
O=C(/C=C/c1ccc(O)c2oc(-c3ccc(O)c(O)c3)cc12)O[C@H](Cc1ccc(O)c(O)c1)C(=O)O	3.85 µM
C[C@@H]1O[C@@H](O[C@H]2[C@H](O[C@H]3CC[C@]4(C)[C@H]5CC=C6[C@@H]7CC(C)(C)CC[C@]7(C(=O)Nc7ccccc7)CC[C@@]6(C)[C@]5(C)CC[C@H]4C3(C)C)O[C@H](CO)[C@@H](O[C@@H]3O[C@@H](C)[C@H](O)[C@@H](O)[C@H]3O)[C@@H]2O)[C@H](O)[C@H](O)[C@H]1O	18.1 µM
COc1ccccc1NC(=O)[C@]12CCC(C)(C)C[C@H]1C1=CC[C@@H]3[C@@]4(C)CC[C@H](O[C@@H]5O[C@H](CO)[C@@H](O[C@@H]6O[C@@H](C)[C@H](O)[C@@H](O)[C@H]6O)[C@H](O)[C@H]5O[C@@H]5O[C@@H](C)[C@H](O)[C@@H](O)[C@H]5O)C(C)(C)[C@@H]4CC[C@@]3(C)[C@]1(C)CC2	5.54 µM
COc1cccc(NC(=O)[C@]23CCC(C)(C)C[C@H]2C2=CC[C@@H]4[C@@]5(C)CC[C@H](O[C@@H]6O[C@H](CO)[C@@H](O[C@@H]7O[C@@H](C)[C@H](O)[C@@H](O)[C@H]7O)[C@H](O)[C@H]6O[C@@H]6O[C@@H](C)[C@H](O)[C@@H](O)[C@H]6O)C(C)(C)[C@@H]5CC[C@@]4(C)[C@]2(C)CC3)c1	8.33 µM
COc1ccc(NC(=O)[C@]23CCC(C)(C)C[C@H]2C2=CC[C@@H]4[C@@]5(C)CC[C@H](O[C@@H]6O[C@H](CO)[C@@H](O[C@@H]7O[C@@H](C)[C@H](O)[C@@H](O)[C@H]7O)[C@H](O)[C@H]6O[C@@H]6O[C@@H](C)[C@H](O)[C@@H](O)[C@H]6O)C(C)(C)[C@@H]5CC[C@@]4(C)[C@]2(C)CC3)cc1	9.97 µM
C[C@@H]1O[C@@H](O[C@H]2[C@H](O[C@H]3CC[C@]4(C)[C@H]5CC=C6[C@@H]7CC(C)(C)CC[C@]7(C(=O)Nc7ccccc7Cl)CC[C@@]6(C)[C@]5(C)CC[C@H]4C3(C)C)O[C@H](CO)[C@@H](O[C@@H]3O[C@@H](C)[C@H](O)[C@@H](O)[C@H]3O)[C@@H]2O)[C@H](O)[C@H](O)[C@H]1O	6.27 µM
C[C@@H]1O[C@@H](O[C@H]2[C@H](O[C@H]3CC[C@]4(C)[C@H]5CC=C6[C@@H]7CC(C)(C)CC[C@]7(C(=O)NCc7ccccc7)CC[C@@]6(C)[C@]5(C)CC[C@H]4C3(C)C)O[C@H](CO)[C@@H](O[C@@H]3O[C@@H](C)[C@H](O)[C@@H](O)[C@H]3O)[C@@H]2O)[C@H](O)[C@H](O)[C@H]1O	4.37 µM
C[C@@H]1O[C@@H](O[C@H]2[C@H](O[C@H]3CC[C@]4(C)[C@H]5CC=C6[C@@H]7CC(C)(C)CC[C@]7(C(=O)NCc7ccccn7)CC[C@@]6(C)[C@]5(C)CC[C@H]4C3(C)C)O[C@H](CO)[C@@H](O[C@@H]3O[C@@H](C)[C@H](O)[C@@H](O)[C@H]3O)[C@@H]2O)[C@H](O)[C@H](O)[C@H]1O	> 20 µM
C[C@@H]1O[C@@H](O[C@H]2[C@H](O[C@H]3CC[C@]4(C)[C@H]5CC=C6[C@@H]7CC(C)(C)CC[C@]7(C(=O)NCc7ccco7)CC[C@@]6(C)[C@]5(C)CC[C@H]4C3(C)C)O[C@H](CO)[C@@H](O[C@@H]3O[C@@H](C)[C@H](O)[C@@H](O)[C@H]3O)[C@@H]2O)[C@H](O)[C@H](O)[C@H]1O	> 20 µM
C[C@@H]1O[C@@H](O[C@H]2[C@H](O[C@H]3CC[C@]4(C)[C@H]5CC=C6[C@@H]7CC(C)(C)CC[C@]7(C(=O)NCc7cccs7)CC[C@@]6(C)[C@]5(C)CC[C@H]4C3(C)C)O[C@H](CO)[C@@H](O[C@@H]3O[C@@H](C)[C@H](O)[C@@H](O)[C@H]3O)[C@@H]2O)[C@H](O)[C@H](O)[C@H]1O	5.89 µM
C[C@@H]1O[C@@H](O[C@H]2[C@H](O[C@H]3CC[C@]4(C)[C@H]5CC=C6[C@@H]7CC(C)(C)CC[C@]7(C(=O)N(C)Cc7ccccc7)CC[C@@]6(C)[C@]5(C)CC[C@H]4C3(C)C)O[C@H](CO)[C@@H](O[C@@H]3O[C@@H](C)[C@H](O)[C@@H](O)[C@H]3O)[C@@H]2O)[C@H](O)[C@H](O)[C@H]1O	7.76 µM
C[C@@H]1O[C@@H](O[C@H]2[C@H](O[C@H]3CC[C@]4(C)[C@H]5CC=C6[C@@H]7CC(C)(C)CC[C@]7(C(=O)NCc7ccccc7F)CC[C@@]6(C)[C@]5(C)CC[C@H]4C3(C)C)O[C@H](CO)[C@@H](O[C@@H]3O[C@@H](C)[C@H](O)[C@@H](O)[C@H]3O)[C@@H]2O)[C@H](O)[C@H](O)[C@H]1O	5.68 µM
C[C@@H]1O[C@@H](O[C@H]2[C@H](O[C@H]3CC[C@]4(C)[C@H]5CC=C6[C@@H]7CC(C)(C)CC[C@]7(C(=O)NCc7ccccc7Cl)CC[C@@]6(C)[C@]5(C)CC[C@H]4C3(C)C)O[C@H](CO)[C@@H](O[C@@H]3O[C@@H](C)[C@H](O)[C@@H](O)[C@H]3O)[C@@H]2O)[C@H](O)[C@H](O)[C@H]1O	6.32 µM
C[C@@H]1O[C@@H](O[C@H]2[C@H](O[C@H]3CC[C@]4(C)[C@H]5CC=C6[C@@H]7CC(C)(C)CC[C@]7(C(=O)NCc7ccccc7Br)CC[C@@]6(C)[C@]5(C)CC[C@H]4C3(C)C)O[C@H](CO)[C@@H](O[C@@H]3O[C@@H](C)[C@H](O)[C@@H](O)[C@H]3O)[C@@H]2O)[C@H](O)[C@H](O)[C@H]1O	9.57 µM
COc1ccccc1CNC(=O)[C@]12CCC(C)(C)C[C@H]1C1=CC[C@@H]3[C@@]4(C)CC[C@H](O[C@@H]5O[C@H](CO)[C@@H](O[C@@H]6O[C@@H](C)[C@H](O)[C@@H](O)[C@H]6O)[C@H](O)[C@H]5O[C@@H]5O[C@@H](C)[C@H](O)[C@@H](O)[C@H]5O)C(C)(C)[C@@H]4CC[C@@]3(C)[C@]1(C)CC2	16.8 µM
C[C@@H]1O[C@@H](O[C@H]2[C@H](O[C@H]3CC[C@]4(C)[C@H]5CC=C6[C@@H]7CC(C)(C)CC[C@]7(C(=O)NCCc7ccccc7)CC[C@@]6(C)[C@]5(C)CC[C@H]4C3(C)C)O[C@H](CO)[C@@H](O[C@@H]3O[C@@H](C)[C@H](O)[C@@H](O)[C@H]3O)[C@@H]2O)[C@H](O)[C@H](O)[C@H]1O	7.37 µM
C[C@@H]1O[C@@H](O[C@H]2[C@H](O[C@H]3CC[C@]4(C)[C@H]5CC=C6[C@@H]7CC(C)(C)CC[C@]7(C(=O)NCCCc7ccccc7)CC[C@@]6(C)[C@]5(C)CC[C@H]4C3(C)C)O[C@H](CO)[C@@H](O[C@@H]3O[C@@H](C)[C@H](O)[C@@H](O)[C@H]3O)[C@@H]2O)[C@H](O)[C@H](O)[C@H]1O	13.1 µM
C[C@@H]1O[C@@H](O[C@H]2[C@H](O[C@H]3CC[C@]4(C)[C@H]5CC=C6[C@@H]7CC(C)(C)CC[C@]7(C(=O)OCc7ccccc7)CC[C@@]6(C)[C@]5(C)CC[C@H]4C3(C)C)O[C@H](CO)[C@@H](O[C@@H]3O[C@@H](C)[C@H](O)[C@@H](O)[C@H]3O)[C@@H]2O)[C@H](O)[C@H](O)[C@H]1O	16.8 µM
